Legend:
[1] = mixture of the two diol species in acid, 20 hour period
[2] = Hot acid stress test (aq. HCl, 65° C., 14-hydroxycodeinone monitored by LC/MS); assay type: physicochemical; conditions: for growth in 14-hydroxycodeinone in hot acid: 65° C. aq. hydrochloride acid at pH<1, after 24 hours; for ABUK (14-hydroxycodeinone) level, 2 hours in hot acid / ABUK (14-hydroxycodeinone) level, 5 hours in hot acid / ABUK (14-hydroxycodeinone) level, 24 hours in hot acid: 65° C., aq. HCl; for ABUK (14-hydroxycodeinone) level, 0 hours in hot acid (T-zero): before heating, water + 3N aq. HCl
[3] = Dry heat stress test (lab drying oven under air at 62° C., 14-hydroxycodeinone monitored by LC/MS); assay type: physicochemical; conditions: for growth of 14-hydroxycodeinone, dry heat: dry heat (greater than 60° C.), after 14 days; for ABUK (14-hydroxycodeinone) level, 4 days at 62° C. / ABUK (14-hydroxycodeinone) level, 7 days at 62° C. / ABUK (14-hydroxycodeinone) level, 14 days at 62° C.: dry heat, under air; for growth in the level of 14-hydroxycodeinone, dry heat at 62° C.: under air at 62° C., monitored for 14 days
Procedure: A 0.0225 g (0.597 sample of low ABUK oxycodone HCl (T-zero: 3.9 ppm 14-hydroxycodeinone) was placed in a standard lab drying oven under air at 62° C. and the level of 14-hydroxycodeinone was monitored by LC/MS for 14 days. No growth in the level of 14-hydroxycodeinone was observed.
A 0.0225 g (0.597 sample of low ABUK oxycodone (T zero: 3.3 ppm 14-hydroxycodeinone by LC/MS was placed in a standard lab drying oven under air at 62° C. and the level of 14-hydroxycodeinone was monitored by LC/MS for 14 days. No growth in the level of 14-hydroxycodeinone was observed
1.10 Procedure: • Separately inject the diluent as a blank. • Inject the resolution solution once. • Inject the impurity working standard three times. • Inject each sample solution under the full gradient. • Inject the diluent at the end. • Quantify the level of 14-Hydroxy Codeinone in the sample by comparing to the averaged corresponding peak specific response (SR) of the standard solution. • Report the level of 14-Hydroxy Codeinone found in the sample to the nearest 0.0001%. • Report the peak area of the diols for information only.

SMILES	degradation on exposure to acid [1]	growth in 14-hydroxycodeinone in hot acid [2]	ABUK (14-hydroxycodeinone) level, 2 hours in hot acid [2] [ppm]	ABUK (14-hydroxycodeinone) level, 5 hours in hot acid [2] [ppm]	ABUK (14-hydroxycodeinone) level, 24 hours in hot acid [2] [ppm]	ABUK (14-hydroxycodeinone) level, 0 hours in hot acid (T-zero) [2] [ppm]	ABUK (14-hydroxycodeinone) level, T-zero (dry heat test) [3] [ppm]	growth of 14-hydroxycodeinone, dry heat [3]	ABUK (14-hydroxycodeinone) level, 4 days at 62° C. [3] [ppm]	ABUK (14-hydroxycodeinone) level, 7 days at 62° C. [3] [ppm]	ABUK (14-hydroxycodeinone) level, 14 days at 62° C. [3] [ppm]	growth in the level of 14-hydroxycodeinone, dry heat at 62° C. [3]	ABUK (14-hydroxycodeinone) level, 0 hours in hot acid (T-zero) ([2]; listed as low ABUK oxycodone base) [ppm]
COc1ccc2c3c1O[C@H]1C(=O)C[C@H](O)[C@@]4(O)[C@@H](C2)N(C)CC[C@]314 (single isomer, unassigned) [peak at RRT 0.91]	degraded little												
COc1ccc2c3c1O[C@H]1C(=O)CC[C@@]4(O)[C@@H](C2)N(C)CC[C@]314.Cl [Oxycodone Hydrochloride from Example 11, oxycodone HCl]		no or minimal growth	3.6	4.2	6.1	2.5	3.9	no growth	3.7	4.0	3.7	No growth	
COc1ccc2c3c1O[C@H]1C(=O)CC[C@@]4(O)[C@@H](C2)N(C)CC[C@]314 [Oxycodone Base from Example 9, oxycodone base]		no or minimal growth	2.5	3.3	6.4	2.5	3.3	no growth	3.4	3.3	3.6	No growth	2.7
